Reference: patent US20180050012A1, “Method for Inhibiting Growth of Ovarian Cancer Cells” (NEW BELLUS ENTERPRISES CO., LTD., priority 2016, published 2018)

Columns and labels:
LC3BII = test: Autophagy: immunohistochemical staining and western blot of LC3BII in ES-2 cells; format: cell-based, human
Description: (§1) Western blot is carried out in a standard procedure. The cells were washed twice with PBS and then a cell lysis solution was added. Cell debris was removed by centrifugation to collect protein degradation products. The protein concentrate was quantified by BCA assay kit (Pierce, Thermo Scientific, USA). Each sample was taken an equal amount of protein degradation products to 10% SDS-PAGE electrophoresis then transferred to a PVDF membrane, followed by the addition of anti-autophagy-related genes (Atg-7, Atg-5, and LC3BII) primary antibodies, and an anti-β-actin antibody as a control group. After the target proteins and the primary antibodies reacted overnight, the secondary antibody conjugated to HRP was added. Finally, the signals of the target proteins were determined by a luminescence-based imaging system (UVP, LLC, USA).
Presumably because cisplatin treatment initiated autophagy that enhanced viability. […] After 4-acetyl-antroquinonol B treatment, LC3BII was detected by immunohistochemical staining and western blot, showing that 4-acetyl-antroquinonol B did inhibit the LC3BII expression on autophagosomes (FIG. 2A). Cell autophagy would protect cancer cells from apoptosis caused by chemotherapies. Hydroxychloroquine was a widely used antiparasitic drug. […] Hydroxychloroquine increased the pH inside lysosomes thus made the lysosomes difficult to fuse with mature autophagosomes. The Inhibitory effect on autophagy could also solve the problem of cell autophagy resistance due to chemotherapies in cancer cells.

[1] = test system: ES-2 ovarian cancer cell line tumors; test: ES-2 xenograft ovarian cancer animal model, tumor growth; format: in vivo, NOD-SCID mice; details: for cell growth of ovarian cancer cell line ES-2 (tumor growth status), single agent: administration of either agent alone
Description: In this study, tumors were induced by malignant ovarian cancer cell line ES-2 in NOD-SCID mice to establish malignant ovarian cancer animal models. The efficacy of oral and intraperitoneal administration of 4-acetyl-antroquinonol B for ovarian cancer was evaluated. In the ovarian cancer animal models, the malignant ovarian cancer cell line ES-2 was implanted subcutaneously to simulate the symptoms of malignant ovarian cancer. And the same time, the animals were fed with different concentrations of 4-acetyl-antroquinonol B every day for six weeks. The animals were sacrificed each week in the six weeks, respectively. […] In addition, different doses of 4-acetyl-antroquinonol B were administered orally (5 mg/kg and 10 mg/kg), and 1 dose (3 mg/kg) of cisplatin was injected intravenously each week (three doses total) when the tumor size was about 70-250 mm^3. […] Importantly, as for safety of 4-acetyl-antroquinonol B, the body weight changes of each group of mice were monitored weekly. […] Therefore, 4-acetyl-antroquinonol B was a potential adjuvant therapy agent in the treatment of ovarian cancer.
Immunodeficient mice (NOD/SCID mice, about 4-6 weeks old) were purchased from BioLASCO Taiwan Co., Ltd. The test was initiated after a week of domestication.
The selected tumor cells were ES2 malignant ovarian cancer cells. ES-2 cell line was derived from a ovarian cancer cell line which was highly resistant to chemotherapy drugs (e.g. cisplatin) and had poor prognosis. It was an anchorage-dependent cell line with strong transfer capacity. The culture medium was DMEM containing 10% fetal bovine serum (FBS), 1% non-essential amino acids (NEAA), and 1% antibiotics. The cells were incubated in a incubator at 37° C., 5% CO2 and subcultured once every 3 to 4 days.
The cells were treated with 0.05% trypsin-EDTA for 3 to 5 minutes to be suspended. The serum-containing medium was added to neutralize trypsin. The mixture was then centrifuged at 1000 rpm at 20° C. for 5 min. The supernatant was removed and the cell pellet was gently dispersed. The cells were resuspended in a suitable volume of culture medium. After mixing evenly, a little cell fluid was taken and cells were counted with a cytometer. The cells were diluted to a concentration of 10^7 cells per milliliter, and approximately 0.15 ml was dispensed into a 1.5 ml small centrifuge tube.
A solution of 4-acetyl-antroquinonol B was prepared in DMSO (250 mg/ml, DMSO was used as the solvent). After 4-acetyl-antroquinonol B was completely dissolved, the solution was dispensed as stock solution and stored at 4° C. Sterile normal saline solution was added to the stock to make a 500-fold dilution. The mixture was mixed evenly and then injected intraperitoneally. Cisplatin, a current clinical standard chemotherapy drug, was also an injection with a concentration of 50 mg/ml or 5 mg/ml, and both of which were injected intravenously without further dilution.
The day before tumor cells injection, zoletil 50 (10-fold dilution) and rompun 2% were mixed (1:1), and 0.25 ml of the mixture was injected intraperitoneally to each mouse for anesthesia. The mice were exposed to radiation to suppress their immunity after they were asleep. The irradiation dose was 0.75 Gy.
Mice were anesthetized with 2.5% isoflurane. The hair of injection site was shaved. The injection site was disinfected with 75% alcohol and povidone-iodine before injection. ES2 tumor cells were injected via 29G insulin needle. […]

[2] = parameters: species or system NOD-SCID mice; details: mouse, in vivo
Description: In this study, tumors were induced by malignant ovarian cancer cell line ES-2 in NOD-SCID mice to establish malignant ovarian cancer animal models. The efficacy of oral and intraperitoneal administration of 4-acetyl-antroquinonol B for ovarian cancer was evaluated. In the ovarian cancer animal models, the malignant ovarian cancer cell line ES-2 was implanted subcutaneously to simulate the symptoms of malignant ovarian cancer. And the same time, the animals were fed with different concentrations of 4-acetyl-antroquinonol B every day for six weeks. The animals were sacrificed each week in the six weeks, respectively. […] Importantly, as for safety of 4-acetyl-antroquinonol B, the body weight changes of each group of mice were monitored weekly. […]
The ES-2 ovarian cancer cells in logarithmic phase were mixed with serum suspension and 0.1 ml (2×10^6 cells) was inoculated into hind legs of NOD-SCID immunodeficient mice to form tumors. […] Changes in tumor volume and body weight were monitored and recorded every week. […] The longest diameter (a) and the shortest diameter (b) of the tumor on mice were measured. The tumor size=(a*b2)/2, and the tumor growth curve was calculated.

cell autophagy = details: recent phase II clinical study; cited from earlier work
[3] = test system: ES-2 ovarian cancer cell line; test: Cytotoxicity test (SRB assay, cell viability); format: cell-based, human
Excerpt: (§2) The ovarian cancer cell lines used in this study included: ES-2, OV-2008, and SKOV-3 obtained from American Type Culture Collection (ATCC). ES-2 was a clear cell carcinoma cell line with high resistance to platinum chemotherapies. Compared with other types of cancer, the clear cell carcinoma was found having poor prognosis in previous studies. SKOV-3 and OV-2008 were more benign cell lines compared to ES-2. Cell culture medium was McCoy5A culture medium (GIbco, 16600-082) supplemented with 1% antibiotic (Gibco, 15140) and 10% fetal bovine serum (FBS, Sigma, F7524). The cells were incubated in a standard incubator (Shel Lab, Sheldon Manufacturing, USA) at 37° C., 5% CO2.
(§3) All the tested cells were incubated in a medium containing 10% fetal bovine serum. When the cells grew to about eighty percent full, the old culture medium was drained and the cells were washed with PBS (phosphate buffered saline) buffer solution. Then, 10 ml of serum-free culture medium was added. Different drugs were added depending on experimental purposes. The reaction was carried out in a 37° C. constant temperature incubator.
(§4) The ovarian cancer cell lines ES-2, OV-2008, and SKOV-3 were placed in a 96-well culture plate (2000 cells/per well) and incubated overnight in 100 μl of complete DMEM. 50 μl of complete DMEM equivalent sample containing 4-acetyl-antroquinonol B (0.5-50 μM) was added to the different wells of the culture plate. In addition, only 100 μl of complete DMEM was added to the control group. After 2 days of culture, the number of cells in each well was determined by sulforhodamine B (a protein-binding dye). Briefly, the cells were fixed in 10% trichloroacetic acid and stained with 0.4% sulforhodamine B. After stained for 20 minutes, the cells were washed with 1% acetic acid. Thereafter, the cell-bound sulforhodamine B was dissolved in 10 mM Tris base. The absorbance (optical density) was determined at 562 nm by a microtiter plate reader.

[4] = test system: OV-2008 ovarian cancer cell line; test: Cytotoxicity test (SRB assay, cell viability); format: cell-based, human; details: 0.5-50 μM, 2 days, FIG. 1B
Excerpt: as §2, §3, §4

[5] = test system: SKOV-3 ovarian cancer cell line; test: Cytotoxicity test (SRB assay, cell viability); format: cell-based, human
Excerpt: as §2, §3, §4

Atg-7 = test: Western blot of Atg-7 in treated cells; format: cell-based, human; details: FIG. 2C
Description: as §1

Atg-5 = test: Western blot of Atg-5 in treated cells; format: cell-based, human; details: FIG. 2C
Description: as §1

ES-2 cell line = test: Clonogenicity analysis; format: cell-based, human; details: FIG. 2D
Description: In a 6-well plate was seeded 600 cells per well. The culture medium was McCoy5A supplemented with 10% fetal bovine serum.

AKT/mTOR/p70S6K = test: Western blot of signaling pathway molecules in ES2 cells; format: cell-based, human; details: treatment for 0, 3, 6, and 12 hours, FIG. 3
Description: as §1
The effect of 4-acetyl-arbutin-B on cell proliferation and autophagy of ovarian cancer cell line ES2 was observed, and the expression of autophagy-associated protein LC3BII and signaling pathway molecules AKT/mTOR/p70S6K were detected by western blot.

Row | SMILES | autophagy phenomenon after cisplatin treatment (LC3BII; ES-2 cell line) | cell growth of ovarian cancer cell line ES-2 (tumor growth status), single agent [1] | body weight after sustained decrease from approximately 26 g [2] | inhibition of cell autophagy (cell autophagy) | growth of ES2 cells ([3]; 20 uM, time-dependent effect, P<0.05) | response to 4-acetyl-antroquinonol B in cell viability test (cytotoxicity) ([3]; ES-2, 0.5-50 μM, 2 days, FIG. 1B) | cell viability compared with hydroxychloroquine ([3]; ES-2 pretreated with 5 μM cisplatin, same concentration) | response to 4-acetyl-antroquinonol B in cell viability test (cytotoxicity) [4] | inhibitory effect on ovarian cancer cell line [5] | cell autophagy (LC3BII; ES-2 cell line) | autophagosome maturation compared with hydroxychloroquine (LC3BII; ES-2 pretreated with 5 μM cisplatin, FIG. 2B) | LC3BII expression on autophagosomes (LC3BII; immunohistochemical staining and western blot, FIG. 2A) | expression of Atg-7 (Atg-7) | expression of downstream Atg-5 (Atg-5) | cell colony formation efficiency (ES-2 cell line) | expressions of signaling pathway key molecules AKT/mTOR/p70S6K (AKT/mTOR/p70S6K) | inhibitory effect on tumor growth, administered alone ([1]; oral 5 mg/kg and 10 mg/kg) | tumor severity versus control group ([1]; oral or intraperitoneal injection, daily for six weeks) | combined inhibitory effect on ovarian cancer with cisplatin and FOLFOX ([1]; ovarian cancer animal model) | safety in the living body [2]
1 | N.N.[Cl][Pt][Cl] [cisplatin, reference compound] | more significant | effectively inhibited | about 21 g |  |  |  |  |  |  |  |  |  |  |  |  |  |  |  |  | 
2 | CCN(CCO)CCCC(C)Nc1ccnc2cc(Cl)ccc12 (stereo not drawn) [hydroxychloroquine] |  |  |  | could successfully inhibit cell autophagy |  |  |  |  |  |  |  |  |  |  |  |  |  |  |  | 
3 | COC1=C(OC)[C@H](OC(C)=O)[C@H](C/C=C(\C)CC/C=C(\C)C[C@H]2C[C@H](C)C(=O)O2)[C@@H](C)C1=O [4-acetyl-antroquinonol B] |  | effectively inhibited |  |  | significantly inhibited | most pronounced response | significantly lower than that in cells treated with hydroxychloroquine | responsive | high inhibitory effect | significantly inhibited | inhibited more than in cells treated with hydroxychloroquine | did inhibit | reduced | inhibited | decreased | significantly reduced | dose-dependent inhibitory effect | significantly lower | synergistic inhibitory effect | extremely high
